What all share (test): High-throughput screening, Ub-RhoMP, single dose 1.25 µM
Assay type in all cases: biochemical

Assay [1] has as its target T1, UCHL5 (Homo sapiens, UniProt Q9Y5K5).
T1 construct: (1-329); purchased Novus biochemicals NBP1-72315
T1 sequence (Q9Y5K5 1-329): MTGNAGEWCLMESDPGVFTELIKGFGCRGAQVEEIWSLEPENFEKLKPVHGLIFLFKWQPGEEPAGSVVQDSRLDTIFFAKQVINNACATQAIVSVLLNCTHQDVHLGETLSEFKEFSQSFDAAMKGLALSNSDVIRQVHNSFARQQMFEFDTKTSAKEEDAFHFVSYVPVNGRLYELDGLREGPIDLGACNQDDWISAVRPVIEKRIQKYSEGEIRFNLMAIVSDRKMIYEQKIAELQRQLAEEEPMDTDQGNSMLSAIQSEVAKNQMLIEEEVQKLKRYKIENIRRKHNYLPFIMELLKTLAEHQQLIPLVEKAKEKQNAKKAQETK
The settings on record: individual amine building block (plate NCN-5); read-out: BB %inhibition UCHL5. As to the method:
(§1) Since the in‐plate synthesis was conducted in 1536‐well Echo plates, the compounds could readily be transferred from these plates into 1536‐well assay plates using acoustic liquid dispensing (Figure 2a) and subjected to HTS. We screened the whole 7536 compound library against a panel of twelve enzymes, including three DUBs from the UCH family, two DUBs from the OTU family, five DUBs from the USP family, plus ISG15 protease USP18, and SUMO protease SENP1. Each compound was tested at a single dose of 1.25 µM, assuming full conversion (10 mM in DMSO of the formed products) during the in‐plate synthesis, using the fluorogenic assay described above. […] The compounds are sorted by the amine building blocks (BB1‐16), and within each BB, sorted by carboxylic acid (CA1‐471), thereby providing a comprehensive and systematic overview of the overall inhibition by each BB and CA combination. Some interesting patterns can be obtained from this map. […] Indeed, BB10 is the privileged scaffold for UCHL1 as it originates from UCHL1 inhibitor 5 (Figure 1). […] On the other hand, OTUD1 and USP32 show a much higher hit rate, and this is even more pronounced for USP30 and ISG15 protease mUSP18, each showing many active compounds distributed over several BB's.
(§2) Purified recombinant enzymes used in this study
(§3) High-throughput screening
(§4) The screens were performed at room temperature in “flat bottom, non-treated, black […]
(§5) µM. The compounds (10 nL each) were transferred from the 1 mM daughter plates to the […]
(§6) Four wells containing DMSO
(§7) (10 nL) and four wells containing NEM (10 mM final concentration) were used in each plate […]
(§8) solution (1.33x final concentration) was added to each well, followed by incubation for 30 min.
(§9) Next, 2 µL of a substrate solution (4x final concentration) was added to each well (Ub-RhoMP[2]
(§10) After 1h or 2h incubation the
(§11) The percentage inhibition was calculated for each well using the […]
(§12) Where FIx is the fluorescence intensity of each well, FIpos is the average fluorescence intensity of the positive (NEM) control wells, and FIneg is the average fluorescence intensity of the negative (DMSO) control wells.

Assay [2] concerns the target T2, UCHL1 (Homo sapiens, UniProt P09936).
T2 construct: (1-223); made in house
T2 sequence (P09936 1-223): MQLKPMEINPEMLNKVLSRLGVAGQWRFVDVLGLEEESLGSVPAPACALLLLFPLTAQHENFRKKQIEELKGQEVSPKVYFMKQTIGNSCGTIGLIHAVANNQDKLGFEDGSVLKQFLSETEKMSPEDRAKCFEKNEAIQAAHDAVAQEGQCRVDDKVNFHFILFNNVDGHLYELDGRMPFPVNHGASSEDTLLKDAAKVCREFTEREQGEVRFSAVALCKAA
Conditions: individual amine building block (plate NCN-5); read-out: BB %inhibition UCHL1. As to the method: as §1, §2, §3, §4, §5, §6, §7, §8, §9, §10, §11, §12

The target in assay [3] is T3, USP32 (Homo sapiens, UniProt Q8NFA0).
T3 construct: (1-1604); His-tag (N); made in house
Conditions: individual amine building block (plate NCN-5); read-out: BB %inhibition USP32. As to the method:
as §1, §2, §3, §4, §5, §6, §7, §8, §9, §10, §11, §12

The target of assay [4] is T4, USP24 (Homo sapiens, UniProt Q9UPU5).
T4 construct: (1-2620); His10; purchased Biotechne E-616
Conditions: individual amine building block (plate NCN-5); read-out: BB %inhibition USP24. As to the method: as §1, §2, §3, §4, §5, §6, §7, §8, §9, §10, §11, §12

Assay [5] concerns the target T5, USP8 (Homo sapiens, UniProt P40818).
T5 construct: (1-1118); purchased Ubiquigent 64-0053-050
T5 sequence (P40818 1-1118): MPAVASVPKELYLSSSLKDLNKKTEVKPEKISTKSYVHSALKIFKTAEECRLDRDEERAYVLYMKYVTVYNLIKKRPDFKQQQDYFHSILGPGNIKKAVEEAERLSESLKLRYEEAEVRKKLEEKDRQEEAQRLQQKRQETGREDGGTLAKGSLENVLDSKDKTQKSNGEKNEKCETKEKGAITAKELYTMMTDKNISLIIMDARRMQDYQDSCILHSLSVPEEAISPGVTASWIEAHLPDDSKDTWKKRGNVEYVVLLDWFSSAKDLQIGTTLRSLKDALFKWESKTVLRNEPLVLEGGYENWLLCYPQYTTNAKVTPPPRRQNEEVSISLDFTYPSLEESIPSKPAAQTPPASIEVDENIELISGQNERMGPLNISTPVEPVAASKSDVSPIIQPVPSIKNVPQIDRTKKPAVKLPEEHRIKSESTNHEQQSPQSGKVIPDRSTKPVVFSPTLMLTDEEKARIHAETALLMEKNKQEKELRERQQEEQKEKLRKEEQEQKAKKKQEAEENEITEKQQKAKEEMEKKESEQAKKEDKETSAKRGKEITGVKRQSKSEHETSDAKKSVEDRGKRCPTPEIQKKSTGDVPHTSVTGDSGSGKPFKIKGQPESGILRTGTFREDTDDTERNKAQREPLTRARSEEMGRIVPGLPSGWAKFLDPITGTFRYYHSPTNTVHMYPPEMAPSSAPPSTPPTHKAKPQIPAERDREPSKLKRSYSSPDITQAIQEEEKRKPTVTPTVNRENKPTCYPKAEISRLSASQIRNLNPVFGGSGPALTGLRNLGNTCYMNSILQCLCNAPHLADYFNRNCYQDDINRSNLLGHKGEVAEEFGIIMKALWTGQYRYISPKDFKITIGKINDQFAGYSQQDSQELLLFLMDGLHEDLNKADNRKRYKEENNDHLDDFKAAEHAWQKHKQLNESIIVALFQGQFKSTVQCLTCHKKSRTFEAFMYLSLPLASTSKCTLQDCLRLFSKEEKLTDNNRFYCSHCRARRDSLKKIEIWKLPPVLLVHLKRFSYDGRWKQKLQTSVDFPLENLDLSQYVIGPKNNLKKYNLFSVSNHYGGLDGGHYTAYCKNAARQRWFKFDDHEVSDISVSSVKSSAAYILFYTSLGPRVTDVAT
Conditions: individual amine building block (plate NCN-5). Here is the method: as §1, §2, §3, §4, §5, §6, §7, §8, §9, §10, §11, §12

SMILES strings stand for the structures.

T3 sequence (Q8NFA0 whole entry): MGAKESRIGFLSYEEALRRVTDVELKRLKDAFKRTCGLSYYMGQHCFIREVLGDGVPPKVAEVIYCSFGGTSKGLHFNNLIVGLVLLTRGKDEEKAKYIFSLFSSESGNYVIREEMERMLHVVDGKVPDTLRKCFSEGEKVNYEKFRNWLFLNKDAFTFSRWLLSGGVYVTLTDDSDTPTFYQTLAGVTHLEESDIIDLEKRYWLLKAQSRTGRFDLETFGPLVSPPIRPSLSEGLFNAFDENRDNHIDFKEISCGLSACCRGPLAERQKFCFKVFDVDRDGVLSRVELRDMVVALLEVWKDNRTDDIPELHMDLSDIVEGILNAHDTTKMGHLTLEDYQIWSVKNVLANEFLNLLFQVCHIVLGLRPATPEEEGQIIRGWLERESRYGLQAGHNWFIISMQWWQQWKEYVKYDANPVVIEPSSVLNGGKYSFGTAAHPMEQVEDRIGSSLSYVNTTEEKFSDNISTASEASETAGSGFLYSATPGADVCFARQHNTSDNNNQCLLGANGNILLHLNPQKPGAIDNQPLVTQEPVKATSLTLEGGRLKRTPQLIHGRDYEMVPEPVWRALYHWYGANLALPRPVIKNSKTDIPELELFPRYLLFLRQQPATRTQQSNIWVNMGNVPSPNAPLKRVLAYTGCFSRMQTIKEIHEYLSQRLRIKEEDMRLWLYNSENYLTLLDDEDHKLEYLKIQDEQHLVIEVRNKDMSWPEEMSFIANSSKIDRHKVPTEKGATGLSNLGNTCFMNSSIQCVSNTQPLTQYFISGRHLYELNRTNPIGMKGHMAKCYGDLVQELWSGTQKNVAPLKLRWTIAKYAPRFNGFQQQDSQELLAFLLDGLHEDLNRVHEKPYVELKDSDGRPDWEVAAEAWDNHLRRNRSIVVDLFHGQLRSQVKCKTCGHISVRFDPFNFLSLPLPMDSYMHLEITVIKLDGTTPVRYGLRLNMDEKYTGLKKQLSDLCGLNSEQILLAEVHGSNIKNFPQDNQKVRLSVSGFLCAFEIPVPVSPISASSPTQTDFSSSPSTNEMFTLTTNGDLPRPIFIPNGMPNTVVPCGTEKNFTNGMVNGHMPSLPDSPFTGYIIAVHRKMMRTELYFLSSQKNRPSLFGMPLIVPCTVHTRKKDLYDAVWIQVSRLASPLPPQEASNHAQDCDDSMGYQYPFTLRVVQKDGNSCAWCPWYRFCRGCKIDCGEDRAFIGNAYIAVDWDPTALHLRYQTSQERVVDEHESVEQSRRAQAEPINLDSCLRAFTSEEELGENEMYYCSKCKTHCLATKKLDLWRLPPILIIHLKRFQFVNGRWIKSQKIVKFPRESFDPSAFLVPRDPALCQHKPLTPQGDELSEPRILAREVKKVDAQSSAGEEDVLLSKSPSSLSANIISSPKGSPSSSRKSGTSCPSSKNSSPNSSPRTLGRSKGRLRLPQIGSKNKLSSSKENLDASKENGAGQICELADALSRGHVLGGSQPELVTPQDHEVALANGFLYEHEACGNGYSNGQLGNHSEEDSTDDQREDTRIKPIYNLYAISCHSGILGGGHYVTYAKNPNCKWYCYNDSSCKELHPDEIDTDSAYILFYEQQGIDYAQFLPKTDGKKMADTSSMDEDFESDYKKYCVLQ
T4 sequence (Q9UPU5 whole entry): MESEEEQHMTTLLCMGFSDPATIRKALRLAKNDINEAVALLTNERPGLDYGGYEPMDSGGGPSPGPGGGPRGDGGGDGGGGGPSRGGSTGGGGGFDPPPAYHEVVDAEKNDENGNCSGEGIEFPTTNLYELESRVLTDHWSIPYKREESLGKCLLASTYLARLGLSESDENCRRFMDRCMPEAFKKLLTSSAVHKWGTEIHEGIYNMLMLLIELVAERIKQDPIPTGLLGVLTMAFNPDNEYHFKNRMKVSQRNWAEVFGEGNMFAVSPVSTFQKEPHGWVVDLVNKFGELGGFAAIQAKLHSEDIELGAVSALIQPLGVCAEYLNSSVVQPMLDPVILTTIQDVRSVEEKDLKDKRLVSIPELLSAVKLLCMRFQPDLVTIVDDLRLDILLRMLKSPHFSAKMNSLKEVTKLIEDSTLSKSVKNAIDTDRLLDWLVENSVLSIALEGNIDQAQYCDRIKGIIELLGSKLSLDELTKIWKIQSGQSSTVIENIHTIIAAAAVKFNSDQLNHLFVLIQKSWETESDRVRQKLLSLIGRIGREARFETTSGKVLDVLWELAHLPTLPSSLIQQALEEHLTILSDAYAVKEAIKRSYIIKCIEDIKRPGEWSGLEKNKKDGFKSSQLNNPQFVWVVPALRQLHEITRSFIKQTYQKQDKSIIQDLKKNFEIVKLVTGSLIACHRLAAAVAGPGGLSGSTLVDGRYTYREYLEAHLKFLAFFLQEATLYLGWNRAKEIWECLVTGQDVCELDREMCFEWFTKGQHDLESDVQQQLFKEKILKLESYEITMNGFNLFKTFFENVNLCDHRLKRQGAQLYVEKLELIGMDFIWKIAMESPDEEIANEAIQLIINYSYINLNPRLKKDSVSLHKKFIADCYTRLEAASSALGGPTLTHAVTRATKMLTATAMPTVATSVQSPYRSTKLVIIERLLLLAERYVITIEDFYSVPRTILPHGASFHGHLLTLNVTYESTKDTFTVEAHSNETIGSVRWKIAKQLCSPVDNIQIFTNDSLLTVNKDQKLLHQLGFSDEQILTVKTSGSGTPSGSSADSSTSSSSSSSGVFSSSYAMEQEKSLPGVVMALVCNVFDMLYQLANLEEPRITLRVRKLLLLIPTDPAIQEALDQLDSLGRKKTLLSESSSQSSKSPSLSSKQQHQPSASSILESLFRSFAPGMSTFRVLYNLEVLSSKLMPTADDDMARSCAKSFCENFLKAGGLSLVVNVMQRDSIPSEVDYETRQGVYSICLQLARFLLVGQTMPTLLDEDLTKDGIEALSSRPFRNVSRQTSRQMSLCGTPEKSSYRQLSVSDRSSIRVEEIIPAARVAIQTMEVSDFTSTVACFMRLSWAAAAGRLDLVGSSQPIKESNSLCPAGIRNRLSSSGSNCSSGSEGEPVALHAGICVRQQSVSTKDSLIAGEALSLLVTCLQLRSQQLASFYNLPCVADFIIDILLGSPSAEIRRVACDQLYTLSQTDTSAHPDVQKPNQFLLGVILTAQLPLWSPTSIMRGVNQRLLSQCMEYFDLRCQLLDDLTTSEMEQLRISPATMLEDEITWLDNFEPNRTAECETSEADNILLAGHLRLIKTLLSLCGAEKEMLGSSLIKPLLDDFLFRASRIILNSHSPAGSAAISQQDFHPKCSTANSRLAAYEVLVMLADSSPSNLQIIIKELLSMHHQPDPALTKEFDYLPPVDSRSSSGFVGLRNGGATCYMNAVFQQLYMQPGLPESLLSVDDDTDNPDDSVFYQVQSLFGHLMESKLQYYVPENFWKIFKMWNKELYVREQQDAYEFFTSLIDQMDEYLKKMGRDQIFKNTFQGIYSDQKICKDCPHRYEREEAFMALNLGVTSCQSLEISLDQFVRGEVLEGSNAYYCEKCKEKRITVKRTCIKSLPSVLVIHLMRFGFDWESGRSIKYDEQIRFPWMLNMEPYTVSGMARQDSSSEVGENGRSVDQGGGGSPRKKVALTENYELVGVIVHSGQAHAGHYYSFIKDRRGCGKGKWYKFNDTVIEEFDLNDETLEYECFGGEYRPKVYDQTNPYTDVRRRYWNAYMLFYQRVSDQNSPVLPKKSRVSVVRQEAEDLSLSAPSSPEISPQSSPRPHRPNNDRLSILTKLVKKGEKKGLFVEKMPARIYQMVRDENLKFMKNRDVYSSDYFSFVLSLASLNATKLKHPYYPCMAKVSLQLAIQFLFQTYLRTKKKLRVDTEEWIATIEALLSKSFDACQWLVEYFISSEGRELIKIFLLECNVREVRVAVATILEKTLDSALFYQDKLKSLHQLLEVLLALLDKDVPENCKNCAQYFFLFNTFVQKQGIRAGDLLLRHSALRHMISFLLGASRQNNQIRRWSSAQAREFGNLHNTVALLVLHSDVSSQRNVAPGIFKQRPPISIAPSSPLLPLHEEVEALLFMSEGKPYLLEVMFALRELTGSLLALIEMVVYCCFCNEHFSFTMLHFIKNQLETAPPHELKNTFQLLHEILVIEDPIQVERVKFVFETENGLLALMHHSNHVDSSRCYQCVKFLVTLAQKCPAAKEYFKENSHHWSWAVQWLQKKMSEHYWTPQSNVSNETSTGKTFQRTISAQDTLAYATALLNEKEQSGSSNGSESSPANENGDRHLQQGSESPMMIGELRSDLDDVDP

What is called inhibition is the drop in the measured response relative to a control, in per cent. For the compound `N#CN1CC[C@H](C(=O)Nc2nc3c(s2)CNCC3)C1` [BB10], the inhibition at 1.25 µM in assay [1] is -11%; in assay [2] it was around 35%; in assay [3] it was 1.5%; in assay [4], -1.8%. Further, the “BB %inhibition USP8” value in assay [5] is recorded as 0.105%.

As for `N#CN1CC[C@H](CN)C1` [BB11], the inhibition at 1.25 µM was -7.1% in assay [1], -2.6% in assay [2], -1.5% in assay [3] and -6.5% in assay [4]. Moreover, in assay [5], the “BB %inhibition USP8” value is reported as -2.4%.

With `N#CN1C[C@@H]2C[C@H]1CN2` [BB12], the inhibition at 1.25 µM in assay [1] is -5.3%; in assay [2], -1.2%; in assay [3], -1.2%; in assay [4], -3.7%. Besides, the “BB %inhibition USP8” value in assay [5] is recorded as -2.5%.

Take `N#CN1C[C@H](N)[C@@H](O)C1` [BB13]: the inhibition at 1.25 µM in assay [1] amounted to 0.225%; in assay [2] it was 0.8%; in assay [3], 1.1%; in assay [4] it was 5.7%. Besides, the “BB %inhibition USP8” value in assay [5] worked out at 0.0%.

As for `N#CN1CCC2(CCNC2)C1` (centres unmarked) [BB14], the inhibition at 1.25 µM in assay [1] is -1.4%; in assay [2] it was 1%; in assay [3], 0.344%; in assay [4], 3.8%. The “BB %inhibition USP8” value in assay [5] turned out to be 7.8%.

For `N#CN1C[C@@H](F)[C@@H](N)C1` [BB15], the inhibition at 1.25 µM in assay [1] was -6%; in assay [2] it was 1%; in assay [3], -3.1%; in assay [4], 5.6%. Also, in assay [5], the “BB %inhibition USP8” value is listed as 2.7%.

As for `N#CN1CCC(n2cc(N)cn2)CC1` [BB16], the inhibition at 1.25 µM is -7.7% in assay [1], 1.3% in assay [2], -6.1% in assay [3] and 9.2% in assay [4]. In assay [5], the “BB %inhibition USP8” value was -3.5%.

The values are drawn from publication PMC12668310, “High‐Throughput Synthesis and Screening of a Cyanimide Library Identifies Selective Inhibitors of ISG15‐Specific Protease mUSP18” (Angewandte Chemie (International Ed. in English), 2025).
